Laboratory results taken from patent US20210000966A1, “HSP90-TARGETING CONJUGATES AND FORMULATIONS THEREOF” (TARVEDA THERAPEUTICS, INC., priority 2017, published 2021).
Where two headings read alike, the source gives them in different places.

Columns and labels:
PARP = PARP inhibiting activity (FIG. 8A); type: biochemical; details: in words
Source text: (§1) The activity of the respective payload is blocked until the linker moiety gets cleaved in the tumor and releases active unblocked payload. Through the HSP90 platform, toxicity is mitigated by masking the payload's active site until it can be delivered to the tumor.
(§2) FIG. 8A compares the activity of Conjugate 45 and its payload (talazoparib). FIG. 8B compares the activity of Conjugate 46 and its payload (ulixertinib). FIG. 8C compares the activity of Conjugate 47 and its payload TAK-733. The data further support that attaching a payload to a HSP90 binding ligand blocks the target activity of the payload. The HSP90 bindings of the HSP90 ligands are not affected.

human total EbB2/Her2 = experiment: HER2 degradation assay (ELISA) in BT474 cells; type: cell-based; details: BT-474, 16 hrs, read-out: Her2 Degradation IC50 Abs IC50
Experimental: BT474 (breast cancer) cells were plated at 12,000 cells per well and incubated for 20-24 hrs at 37° C. at 5% CO2. Post cell incubation, compounds were reconstituted in DMSO to a stock concentration of 5 mM. A compound plate was then prepared containing a 10 point dilution in DMSO. 2 uL of these dilutions were then added to the cells for a final working concentration of 5 uM to 0.0003 uM. Compounds and cells were incubated for 16 hrs. Media was then removed, cells washed, lysed, and analyzed for human total EbB2/Her2 levels by ELISA.

HSP90α = target: T1, HSP90α (Homo sapiens, UniProt P07900); experiment: HSP90 binding, HSP90α Assay Kit (fluorescence polarization, labeled geldanamycin competition)
T1 construct: purchased
Experimental: The bindings of the conjugates to HSP90 were studied with the HSP90α Assay Kit. The HSP90α Assay Kit is designed for identification of HSP90α inhibitors using fluorescence polarization. The assay is based on the competition of fluorescently labeled geldanamycin for binding to purified recombinant HSP90α. The key to the HSP90α Assay Kit is the fluorescently labeled geldanamycin. The fluorescently labeled geldanamycin is incubated with a sample containing HSP90α enzyme to produce a change in fluorescent polarization that can then be measured using a fluorescence reader.

ERK1/2 = ERK1/2 inhibiting activity (FIG. 8B); type: biochemical; details: in words
Source text: as §1, §2

NCI-H460 cells = experiment: NCI-H460 tumor cell cytotoxicity assay (CellTiter-Glo); type: cell-based; details: Homo sapiens, NCI-H460, 48 h
Experimental: NCI-H460 cells (non-small cell lung cancer) were plated at 500 cells per well and incubated for 20-24 hrs at 37° C. at 5% CO2. Post cell incubation, compounds were reconstituted in DMSO to a stock concentration of 200 uM. A compound plate was then prepared containing a 10 point dilution in RPMI+10% FBS+0.25% DMSO. 5 uL of the dilution was then added for a final working concentration range of 10 uM to 0.0005 uM. Compounds and cells were then incubated for 48 hrs. Cells were then analyzed by CellTiter-Glo for ATP levels and percent inhibition calculated.

topoisomerase-I = target: T2, topoisomerase-I (Homo sapiens, UniProt P11387); experiment: DNA damage / topoisomerase activity (FIG. 9); type: biochemical; details: FIG. 9, in words
T2 sequence (P11387 1-765): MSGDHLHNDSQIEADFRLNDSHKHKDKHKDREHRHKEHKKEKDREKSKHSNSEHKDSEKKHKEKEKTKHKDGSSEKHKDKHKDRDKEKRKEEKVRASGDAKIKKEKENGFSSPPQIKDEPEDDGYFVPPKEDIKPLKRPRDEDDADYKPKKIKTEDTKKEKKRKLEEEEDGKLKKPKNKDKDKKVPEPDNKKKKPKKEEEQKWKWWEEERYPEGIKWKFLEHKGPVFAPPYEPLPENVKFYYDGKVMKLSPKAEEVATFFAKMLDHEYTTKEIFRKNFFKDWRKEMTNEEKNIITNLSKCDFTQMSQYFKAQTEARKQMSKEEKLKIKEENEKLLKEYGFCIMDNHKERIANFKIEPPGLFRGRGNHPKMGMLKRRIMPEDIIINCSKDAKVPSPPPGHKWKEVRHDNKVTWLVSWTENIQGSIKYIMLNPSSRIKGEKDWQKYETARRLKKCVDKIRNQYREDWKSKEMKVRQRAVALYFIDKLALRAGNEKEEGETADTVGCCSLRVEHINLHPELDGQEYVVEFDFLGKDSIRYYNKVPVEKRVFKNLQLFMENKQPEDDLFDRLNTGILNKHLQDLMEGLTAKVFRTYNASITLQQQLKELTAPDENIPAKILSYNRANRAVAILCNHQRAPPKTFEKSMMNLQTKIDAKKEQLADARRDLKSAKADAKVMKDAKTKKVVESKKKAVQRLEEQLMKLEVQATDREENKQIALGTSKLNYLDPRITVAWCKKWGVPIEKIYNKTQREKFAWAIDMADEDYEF
Source text: In one further study, DNA damage caused by Conjugate 48 (a conjugate comprising a ganetespib derivative and SN-38) was compared with the DNA damage caused by SN-38, the payload of Conjugate 48. SN-38 and its pre-drug, irinotecan (an analog of camptothecin), are inhibitors of topoisomerase-I and potently cause DNA damage that results in nicks in the DNA. […] The conjugation of SN-38 to the HSP90 ligand results in the masking of the activity of SN-38 until it can be selectively delivered to tumors where linker cleavage occurs.

[1] = tested on: LS174t colon tumor xenograft; experiment: LS174t colon tumor xenograft model, efficacy; type: in vivo, mice; details: FIG. 3A, in words
[2] = type: in vivo, mice; details: LS174t xenograft, in words
Experimental: Accumulation and retention of Conjugate 38 was tested in this tumor xenograft model.

[3] = Glucose levels post dosing in mice; type: in vivo; details: FIG. 7, in words
Source text: In an in vivo study in mice, glucose levels were monitored post PI3K inhibitor (Copanlisib) and Conjugate 38 dosing. […] Therefore, conjugating a PI3K enzyme inhibitor payload to a HSP90 targeting ligand reduced the normal tissue activity of glucose increase in mice.

[4] = n = 1, read-out: H460 in vitro cytotoxicity
[5] = n = 2, read-out: H460 in vitro cytotoxicity

CC(C)c1cc(-c2nnc(O)n2-c2ccc(CN3CCN(CCC(C)(C)SS[C@H](C)COC(=O)N(CCN(C)C)Cn4nc5c6c(cc(F)cc6c4=O)N[C@H](c4ccc(F)cc4)[C@H]5c4ncnn4C)CC3)cc2)c(O)cc1O [Conjugate 45]
PARP inhibiting activity compared with payload (talazoparib) (PARP): lower than its payload

CCNC(=O)c1nnc(-c2cc(C(C)C)c(O)cc2O)n1-c1ccc(CN2CCN(C(=O)c3ccc(OC(=O)N4CCN(CCCOc5ccc6c(c5OC)N=C(NC(=O)c5cnc(N)nc5)N5CCN=C65)CC4)cc3)CC2)cc1 [Compound 30]
IC50 (human total EbB2/Her2): 38 nM
Kd (HSP90α; read-out: HSP90 Binding Kd): 0.68 nM

CCNC(=O)c1nnc(-c2cc(C(C)C)c(O)cc2O)n1-c1ccc(C(=O)N2CCN(Cc3ccc(OC(=O)N4CCN(CCCOc5ccc6c(c5OC)N=C(NC(=O)c5cnc(N)nc5)N5CCN=C65)CC4)c(C)c3)CC2)cc1 [Compound 33]
IC50 (human total EbB2/Her2): 41 nM
Kd (HSP90α; read-out: HSP90 Binding Kd): 1.03 nM

CCNC(=O)c1nnc(-c2cc(C(C)C)c(O)cc2O)n1-c1ccc(CN2CCC(C(=O)N3CCC(C(=O)OC[C@@H](NC(=O)c4cc(-c5cc(NC(C)C)ncc5Cl)c[nH]4)c4cccc(Cl)c4)CC3)CC2)c(F)c1 [Conjugate 46]
ERK1/2 inhibiting activity compared with payload (ulixertinib) (ERK1/2): lower than its payload

CCNC(=O)c1nnc(-c2cc(C(C)C)c(O)cc2O)n1-c1ccc(C(=O)N2CCN(c3ccc(OC(=O)N4CCN(CCCOc5ccc6c(c5OC)N=C(NC(=O)c5cnc(N)nc5)N5CCN=C65)CC4)cc3)CC2)cc1 [Compound 29]
IC50 (human total EbB2/Her2): 59 nM
Kd (HSP90α; read-out: HSP90 Binding Kd): 1.03 nM

CCNC(=O)c1nnc(-c2cc(C(C)C)c(O)cc2O)n1-c1ccc(CN2CCN(C(=O)N3CCN(CCCOc4ccc5c(c4OC)N=C(NC(=O)c4cnc(N)nc4)N4CCN=C54)CC3)CC2)cc1 [Compound 36]
IC50 (human total EbB2/Her2): 72 nM

CC(C)c1cc(-c2nnc(O)n2-c2ccc(CN3CCN(CCC(C)(C)SS[C@H](C)COC(=O)N(CCN(C)C)Cn4nc5c6c(cc(F)cc6c4=O)N[C@H](c4ccc(F)cc4)[C@H]5c4ncnn4C)CC3)cc2)c(O)cc1O [Compound 45]
Kd (HSP90α; read-out: HSP90 KD): 0.33 nM

CCNC(=O)c1nnc(-c2cc(C(C)C)c(O)cc2O)n1-c1ccc(C(=O)NCCc2ccc(OC(=O)N(C)CCCOc3ccc4c(c3OC)N=C(NC(=O)c3cnc(N)nc3)N3CCN=C43)cc2)cc1 [Compound 44]
IC50 (NCI-H460 cells; [4]): 527 nM
IC50 (NCI-H460 cells; [5]): 325 nM

CCc1c2c(nc3ccc(O)cc13)-c1cc3c(c(=O)n1C2)COC(=O)[C@]3(O)CC [SN-38]
DNA damage (topoisomerase-I): DNA damage even at 1 uM

COc1c(OCCCN2CCOCC2)ccc2c1N=C(NC(=O)c1cnc(N)nc1)N1CCN=C21 [Copanlisib, reference compound]
efficacy (tumor growth inhibition) in LS174t xenograft [1]: lack of efficacy
tumor retention time [2]: much shorter tumor retention time
glucose concentration after dosing [3]: increase in glucose levels

COc1c(OCCCN2CCN(C(=O)Oc3ccc(CC(=O)N4CCC(CCn5ccc6cc(-n7c(O)nnc7-c7cc(C(C)C)c(O)cc7O)ccc65)CC4)cc3)CC2)ccc2c1N=C(NC(=O)c1cnc(N)nc1)N1CCN=C21 [Compound 40]
IC50 (NCI-H460 cells; [4]): 247 nM
IC50 (NCI-H460 cells; [5]): 56 nM

CCNC(=O)c1nnc(-c2cc(C(C)C)c(O)cc2O)n1-c1ccc(C(=O)N2CCN(Cc3ccc(OC(=O)N4CCN(CCCOc5ccc6c(c5OC)N=C(NC(=O)c5cnc(N)nc5)N5CCN=C65)CC4)cc3)CC2)cc1 [Compound 32]
IC50 (human total EbB2/Her2): 49 nM
Kd (HSP90α; read-out: HSP90 Binding Kd): 0.86 nM

CCNC(=O)c1nnc(-c2cc(C(C)C)c(O)cc2O)n1-c1ccc(C(=O)NCCc2ccc(OC(=O)N(CCCOc3ccc4c(c3OC)N=C(NC(=O)c3cnc(N)nc3)N3CCN=C43)C(C)C)cc2)cc1 [Compound 42]
IC50 (NCI-H460 cells; [4]): 135 nM
IC50 (NCI-H460 cells; [5]): 147 nM

CCNC(=O)c1nnc(-c2cc(C(C)C)c(O)cc2O)n1-c1ccc(C(=O)NCc2cc(C)c(OC(=O)N3CCN(CCCOc4ccc5c(c4OC)N=C(NC(=O)c4cnc(N)nc4)N4CCN=C54)CC3)c(C)c2)cc1 [Compound 34]
IC50 (human total EbB2/Her2): 141 nM
Kd (HSP90α; read-out: HSP90 Binding Kd): 1.37 nM

COc1c(OCCCN2CCN(C(=O)Oc3ccc(CC(=O)N4CCN(Cc5ccc(-n6c(O)nnc6-c6cc(C(C)C)c(O)cc6O)cc5)CC4)cc3)CC2)ccc2c1N=C(NC(=O)c1cnc(N)nc1)N1CCN=C21 [Compound 39]
IC50 (human total EbB2/Her2): > 20000 nM
Kd (HSP90α; read-out: HSP90 Binding Kd): 1.8 nM

CCc1c2c(nc3ccc(OC(=O)N4CCC(CCn5ccc6cc(-n7c(O)nnc7-c7cc(C(C)C)c(O)cc7O)ccc65)CC4)cc13)-c1cc3c(c(=O)n1C2)COC(=O)[C@]3(O)CC [Conjugate 48]
DNA damage (topoisomerase-I): negligible levels of DNA damage up to 100 uM

CCNC(=O)c1nnc(-c2cc(C(C)C)c(O)cc2O)n1-c1ccc(CN2CCC(C(=O)N3CCN(c4ccc(OC(=O)N5CCN(CCCOc6ccc7c(c6OC)N=C(NC(=O)c6cnc(N)nc6)N6CCN=C76)CC5)cc4)CC3)CC2)cc1 [Compound 31]
IC50 (human total EbB2/Her2): 103 nM
Kd (HSP90α; read-out: HSP90 Binding Kd): 1.38 nM

CCNC(=O)c1nnc(-c2cc(C(C)C)c(O)cc2O)n1-c1ccc(N(C)C2CCN(C(=O)CCC(=O)OC[C@H](O)Cn3cnc4c(c(Nc5ccc(I)cc5F)c(F)c(=O)n4C)c3=O)CC2)cc1 [Compound 47]
Kd (HSP90α; read-out: HSP90 KD): 1.2 nM

CCNC(=O)c1nnc(-c2cc(C(C)C)c(O)cc2O)n1-c1ccc(CN2CCC(C(=O)N3CCC(C(=O)OC[C@@H](NC(=O)c4cc(-c5cc(NC(C)C)ncc5Cl)c[nH]4)c4cccc(Cl)c4)CC3)CC2)c(F)c1 [Compound 46]
Kd (HSP90α; read-out: HSP90 KD): 1 nM

CCc1c2c(nc3ccc(OC(=O)N4CCC(N5CCCCC5)CC4)cc13)-c1cc3c(c(=O)n1C2)COC(=O)[C@]3(O)CC [irinotecan]
DNA damage (topoisomerase-I): moderate level of DNA damaging activity

CCNC(=O)c1nnc(-c2cc(C(C)C)c(O)cc2O)n1-c1ccc(CN2CCN(C(=O)Oc3ccc(OC(=O)N4CCN(CCCOc5ccc6c(c5OC)N=C(NC(=O)c5cnc(N)nc5)N5CCN=C65)CC4)cc3)CC2)cc1 [Compound 37]
IC50 (human total EbB2/Her2): 119 nM

CCNC(=O)c1nnc(-c2cc(C(C)C)c(O)cc2O)n1-c1ccc(CN2CCN(C(=O)Cc3ccc(CC(=O)N(C)CCCOc4ccc5c(c4OC)N=C(NC(=O)c4cnc(N)nc4)N4CCN=C54)cc3)CC2)cc1 [Compound 43]
IC50 (NCI-H460 cells; [4]): 42 nM
IC50 (NCI-H460 cells; [5]): 31 nM

CC(C)c1cc(-c2nnc(O)n2-c2ccc3c(ccn3C)c2)c(O)cc1O [ganetespib, reference compound]
efficacy (tumor growth inhibition) in LS174t xenograft [1]: lack of efficacy
DNA damage (topoisomerase-I): none
